Assay results published in ChEMBL document CHEMBL1201862, “PubChem BioAssay data set” (2004).
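Where inhibition never reached the appropriate level, the endpoint shown equals the highest concentration tested. Otherwise, values were interpolated linearly from a five-concentration, 48-hour dose response in 96-well plates. GI50 = concentration required for 50% inhibition of growth.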 Calls of active or inactive are those of the source. Cut-off read from the data, not from the text of the source: active = GI50 up to about 1.1 µM and inactive = higher.

Assays:
Test in all cases: growth of human tumour cells (NCI), 48 h
SF-268 = test system: SF-268
A549 = test system: A549
NCI-H460 = test system: NCI-H460
HCT-15 = test system: HCT-15
U-251 = test system: U-251
HOP-62 = test system: HOP-62
A498 = test system: A498
K562 = test system: K562
IGROV-1 = test system: IGROV-1
MCF7 = test system: MCF7
HL-60 = test system: HL-60
CAKI-1 = test system: CAKI-1
SF-295 = test system: SF-295
SK-MEL-5 = test system: SK-MEL-5
OVCAR-3 = test system: OVCAR-3
OVCAR-8 = test system: OVCAR-8
NCI-H23 = test system: NCI-H23
SNB-75 = test system: SNB-75
MDA-MB-231 = test system: MDA-MB-231
Malme-3M = test system: Malme-3M
NCI-H226 = test system: NCI-H226
HCC 2998 = test system: HCC 2998
Hs-578T = test system: Hs-578T
ACHN = test system: ACHN
MDA-MB-435 = test system: MDA-MB-435
CCRF-CEM = test system: CCRF-CEM
EKVX = test system: EKVX
M14 = test system: M14
SK-MEL-2 = test system: SK-MEL-2
SN12C = test system: SN12C
SNB-19 = test system: SNB-19
COLO 205 = test system: COLO 205
RPMI-8226 = test system: RPMI-8226
SK-MEL-28 = test system: SK-MEL-28
MOLT-4 = test system: MOLT-4
SF-539 = test system: SF-539
SW-620 = test system: SW-620
NCI-H522 = test system: NCI-H522
HT-29 = test system: HT-29
UACC-257 = test system: UACC-257
DU-145 = test system: DU-145
OVCAR-5 = test system: OVCAR-5
T47D = test system: T47D
SK-OV-3 = test system: SK-OV-3
UO-31 = test system: UO-31
PC-3 = test system: PC-3
786-0 = test system: 786-0
NCI/ADR-RES = test system: NCI/ADR-RES
RXF 393 = test system: RXF 393
SR = test system: SR
UACC-62 = test system: UACC-62
OVCAR-4 = test system: OVCAR-4
HCT-116 = test system: HCT-116
HOP-92 = test system: HOP-92
LOX IMVI = test system: LOX IMVI
MDA-N = test system: MDA-N
TK-10 = test system: TK-10

Cc1cc(N=C2C=C(Br)C(=O)C(Br)=C2)cc(CN(CC(=O)O)CC(=O)O)c1O
GI50 (SF-268): > 100 µM (inactive)
GI50 (A549): > 100 µM (inactive)
GI50 (NCI-H460): > 100 µM (inactive)
GI50 (HCT-15): > 100 µM
GI50 (U-251): > 100 µM (inactive)
GI50 (HOP-62): > 100 µM (inactive)
GI50 (A498): > 100 µM (inactive)
GI50 (K562): > 100 µM (inactive)
GI50 (IGROV-1): > 100 µM (inactive)
GI50 (MCF7): > 100 µM (inactive)
GI50 (HL-60): > 100 µM (inactive)
GI50 (CAKI-1): > 100 µM (inactive)
GI50 (SF-295): > 100 µM (inactive)
GI50 (SK-MEL-5): > 100 µM (inactive)
GI50 (OVCAR-3): > 100 µM (inactive)
GI50 (OVCAR-8): > 100 µM (inactive)
GI50 (NCI-H23): > 100 µM (inactive)
GI50 (SNB-75): > 100 µM (inactive)
GI50 (MDA-MB-231): > 100 µM (inactive)
GI50 (Malme-3M): > 100 µM (inactive)
GI50 (NCI-H226): > 100 µM (inactive)
GI50 (HCC 2998): > 100 µM (inactive)
GI50 (Hs-578T): > 100 µM (inactive)
GI50 (ACHN): > 100 µM (inactive)
GI50 (MDA-MB-435): > 100 µM (inactive)
GI50 (CCRF-CEM): > 100 µM (inactive)
GI50 (EKVX): > 100 µM (inactive)
GI50 (M14): > 100 µM (inactive)
GI50 (SK-MEL-2): > 100 µM (inactive)
GI50 (SN12C): > 100 µM (inactive)
GI50 (SNB-19): > 100 µM (inactive)
GI50 (COLO 205): > 100 µM (inactive)
GI50 (RPMI-8226): > 100 µM (inactive)
GI50 (SK-MEL-28): > 100 µM (inactive)
GI50 (MOLT-4): > 100 µM (inactive)
GI50 (SF-539): > 100 µM (inactive)
GI50 (SW-620): > 100 µM (inactive)
GI50 (NCI-H522): > 100 µM (inactive)
GI50 (HT-29): > 100 µM (inactive)
GI50 (UACC-257): > 100 µM (inactive)
GI50 (DU-145): > 100 µM (inactive)
GI50 (OVCAR-5): > 100 µM (inactive)
GI50 (T47D): > 100 µM (inactive)
GI50 (SK-OV-3): > 100 µM (inactive)
GI50 (UO-31): > 100 µM (inactive)
GI50 (PC-3): > 100 µM (inactive)
GI50 (786-0): > 100 µM (inactive)
GI50 (NCI/ADR-RES): > 100 µM (inactive)
GI50 (RXF 393): > 100 µM (inactive)
GI50 (SR): > 100 µM (inactive)
GI50 (UACC-62): > 100 µM (inactive)
GI50 (OVCAR-4): > 100 µM (inactive)
GI50 (HCT-116): > 100 µM (inactive)

O=C1Cc2c([nH]c3ccc(Cl)cc23)-c2ccccc2N1
GI50 (SF-268): > 100 µM (inactive)
GI50 (HOP-92): > 100 µM (inactive)
GI50 (A549): > 100 µM (inactive)
GI50 (NCI-H460): > 100 µM (inactive)
GI50 (LOX IMVI): 2.13 µM (inactive)
GI50 (U-251): > 100 µM (inactive)
GI50 (MDA-N): > 100 µM (inactive)
GI50 (A498): > 100 µM (inactive)
GI50 (IGROV-1): > 100 µM (inactive)
GI50 (MCF7): > 100 µM (inactive)
GI50 (SF-295): > 100 µM (inactive)
GI50 (SK-MEL-5): > 100 µM (inactive)
GI50 (OVCAR-8): > 100 µM (inactive)
GI50 (NCI-H23): > 100 µM (inactive)
GI50 (SNB-75): > 100 µM (inactive)
GI50 (MDA-MB-231): > 100 µM (inactive)
GI50 (Malme-3M): > 100 µM (inactive)
GI50 (NCI-H226): > 100 µM (inactive)
GI50 (Hs-578T): > 100 µM (inactive)
GI50 (ACHN): > 100 µM (inactive)
GI50 (MDA-MB-435): > 100 µM (inactive)
GI50 (M14): > 100 µM (inactive)
GI50 (SN12C): > 100 µM (inactive)
GI50 (SNB-19): > 100 µM (inactive)
GI50 (COLO 205): > 100 µM (inactive)
GI50 (RPMI-8226): > 100 µM (inactive)
GI50 (SK-MEL-28): > 100 µM (inactive)
GI50 (NCI-H522): > 100 µM (inactive)
GI50 (T47D): > 100 µM (inactive)
GI50 (SK-OV-3): > 100 µM (inactive)
GI50 (UO-31): > 100 µM (inactive)
GI50 (TK-10): > 100 µM (inactive)
GI50 (786-0): > 100 µM (inactive)
GI50 (NCI/ADR-RES): > 100 µM (inactive)
GI50 (UACC-62): 74.6 µM (inactive)
GI50 (OVCAR-4): > 100 µM (inactive)
GI50 (HCT-116): 3.17 µM (inactive)
